{"source": "patent US4547521A", "about": "“16-Methoxy-16-methyl prostaglandin E1 derivatives, a process for preparing them and their use as gastroprotective agents” (Gruppo Lepetit S.p.A., priority 1979, dated 1985)", "key": {"gastric acid secretion": {"system": "gastric acid secretion", "experiment": "Inhibition of gastric acid secretion in dogs, histamine at fixed dose of 160 μg/kg/h, oral", "format": "in vivo, mongrel dogs", "settings": "histamine fixed dose 160 μg/kg/h", "experimental": "The compounds of the present invention are also potent inhibitors of the gastric secretion when they are administered to laboratory animals by the oral route. […] The gastric antisecretory properties of these compounds when administered per os were evaluated on the basis of their effectiveness in inhibiting the hyperacidity induced by histamine in dogs. Histamine, which is a potent stimulator of the acidic gastric secretion (see Bertaccini et al., Eur. Journ. Pharmacol., 28, 360, 1974), was administered intravenously by continuous infusion during the experiments.\nA group of five mongrel dogs was used in the experiment. […]\nTo evaluate the gastric antisecretory oral activity of the compounds of the invention, they were administered by gavage into the main stomach at a given dosage, expressed as μg/kg/h, dissolved in 1 ml of physiological solution, 60 minutes before the secreting agent. […]\nThe compounds of the present invention are potent inhibitors of also gastric hypersecretion also when administered intravenously. […] The pH of the fluid emerging from a cannula in the pylorus is continuously recorded by means of a glass-electrode connected to a direct reading pH-meter and thence to a recorder. […]"}, "[1]": {"system": "gastric hypersecretion induced by histamine", "experiment": "Inhibition of histamine-induced gastric hypersecretion in anesthetized perfused-stomach rats (Ghosh and Schild), intravenous", "format": "in vivo", "settings": "i.v., histamine 1.5 mg/kg/h", "experimental": "The compounds of the present invention are potent inhibitors of also gastric hypersecretion also when administered intravenously. This has been confirmed by evaluating the effects, on gastric hypersecretion induced by histamine, produced by a single intravenous administration to anesthetized rats of the compounds of the present invention. The experiments were carried out essentially according to the methodology described by Ghosh and Schild in Brit. J. Pharm. (1958), 13, 54-61. According to this technique the rat is anesthetized with urethane and its stomach is perfused with a dilute sodium hydroxide solution (N/4000 NaOH at a rate of about 1 ml/min) by way of the oesophagus. The pH of the fluid emerging from a cannula in the pylorus is continuously recorded by means of a glass-electrode connected to a direct reading pH-meter and thence to a recorder. In passing through the stomach, the perfusate collects sufficient buffer to act as an approximately linear buffer system over the relevant range, so that the change in pH becomes a measure of acid secretion.\nWhen the N/4000 NaOH solution is collected after having passed through the unstimulated stomach it gives an initial value of about 6-6.5 (pHunstimulated stomach). A secretory stimulant, histamine in the present case, is then administered intravenously by continuous infusion at a dose of 1.5 mg/kg/h. After a few minutes the pH begins to fall and after about 10 to 20 minutes the secretory effect reaches its maximum and the pH its lowest value (pHhistamine stimulated stomach) which, owing to the continuous infusion of histamine, remains constant. The compounds to be tested are then administered intravenously and the pH is continuously recorded. By considering the highest pH value recorded, which evidences the maximum antisecretory effect reached with the test compound (pHM.A.E.) and using the following equation [formula] the percent inhibition of gastric acid secretion may be easily calculated."}, "[2]": {"system": "gastric ulcers caused by indomethacin", "experiment": "Cytoprotective activity: inhibition of gastric ulcers caused by indomethacin in rats, oral", "format": "in vivo", "settings": "indomethacin i.p.", "experimental": "More particularly, the cytoprotective activity of the compounds of the present invention was evaluated on the basis of their effectiveness in inhibiting the formation and reducing the severity of gastric ulcers in rats caused by the administration of a high dose of 1-(p-chlorobenzoyl)-5-methoxy-2-methyl-3-indolyl-acetic acid (indomethacin). The cytoprotective activity occurred at oral doses which are by far lower than those which cause inhibition of the gastric acid secretion. In these experiments the rats were deprived of food the day before the beginning of the experiments but water was given ad libitum. The compounds to be tested were administered by the oral route as a suspension in 0.5% aqueous methocel solution (5 animals/dose), while indomethacin was administered intraperitoneally at […] in the same vehicle. Another group of rats (controls) was administered only with the ulcerogenic agent. The cytoprotective properties of the compounds of this invention were then expressed as \"percent inhibition of the ulcers with respect to controls\", which can be easily calculated by the following ratio: [formula] wherein A.U.D.(controls) is the average ulceration degree of the stomachs of the controls and A.U.D.(treated animals) is the average ulceration degree of the stomachs of the animals which received both indomethacin and the compound to be tested.\nThe A.U.D.s are calculated according to the method described by Thuillier et al. Chim. Ther., 3, 53, 1968, by examining the stomachs of the laboratory animals for possible ulcerations and assigning a score from 0 to 4 which depends on the number and the severity of the observed ulcerations: 0 indicates absence of any ulceration on the gastric wall; 4 indicates perforating ulcerations. A single ulceration degree (S.U.D.) is then calculated for each single stomach. The sum of the S.U.D.s divided by the number of the animals affords the A.U.D. of the stomachs of each group of animals."}}}
{"smiles": "CCCCC(C)(OC)C(O)/C=C/[C@H]1[C@H](O)CC(=O)[C@@H]1CCCCCCC(=O)OC", "note": "(single isomer, unassigned) [Example 1F, 11α,15-dihydroxy-16-methoxy-16-methyl-9-oxo-prosta-13(E)-ene-1-oic acid methyl ester]", "values": [{"measurement": "block of gastric acid secretion", "setting": "gastric acid secretion", "result": "about 60%"}, {"measurement": "% Inhibition of the acid gastric secretion", "setting": "[1]; 2.5 μg/kg", "result": 15, "unit": "%"}, {"measurement": "% Inhibition of the acid gastric secretion", "setting": "[1]; 10 μg/kg", "result": 63, "unit": "%"}, {"measurement": "% Inhibition of the acid gastric secretion", "setting": "[1]; 20 μg/kg", "result": 90, "unit": "%"}, {"measurement": "% Inhibition of the acid gastric secretion", "setting": "[1]; 50 μg/kg", "result": 100, "unit": "%"}, {"measurement": "percent inhibition of the ulcers with respect to controls", "setting": "[2]; 3 μg/kg (lowest dose tested)", "result": "about 43%"}, {"measurement": "ED50", "setting": "[2]; Rattus norvegicus, calculated by extrapolation, read-out: ED50 (dose which provokes an inhibition of the ulcers with respect to controls of 50%)", "result": 6, "unit": "µg/kg"}, {"measurement": "cytoprotective activity (in words)", "setting": "[2]", "result": "very active even at very low doses"}]}
